Source: ChEMBL document CHEMBL4725361, “MicroRNA-Based Multitarget Approach for Alzheimer's Disease: Discovery of the First-In-Class Dual Inhibitor of Acetylcholinesterase and MicroRNA-15b Biogenesis” (J Med Chem, 2020)
Values after ≈ are worked out from the molar mass of the structure shown. Active and inactive are the calls of the source. The rule behind the calls is not given here.

Columns and labels:
[1] = target: Cholinesterase (Homo sapiens) (UniProt P06276); experiment: Inhibition of human blood BChE at 1 to 25 uM using butyrylthiocholine iodide as substrate measured after 20 mins by fluorescence assay; type: tissue-based; conditions: dose microM 1-25, time 20.0 min
Sequence of Cholinesterase (Homo sapiens) (P06276 whole entry): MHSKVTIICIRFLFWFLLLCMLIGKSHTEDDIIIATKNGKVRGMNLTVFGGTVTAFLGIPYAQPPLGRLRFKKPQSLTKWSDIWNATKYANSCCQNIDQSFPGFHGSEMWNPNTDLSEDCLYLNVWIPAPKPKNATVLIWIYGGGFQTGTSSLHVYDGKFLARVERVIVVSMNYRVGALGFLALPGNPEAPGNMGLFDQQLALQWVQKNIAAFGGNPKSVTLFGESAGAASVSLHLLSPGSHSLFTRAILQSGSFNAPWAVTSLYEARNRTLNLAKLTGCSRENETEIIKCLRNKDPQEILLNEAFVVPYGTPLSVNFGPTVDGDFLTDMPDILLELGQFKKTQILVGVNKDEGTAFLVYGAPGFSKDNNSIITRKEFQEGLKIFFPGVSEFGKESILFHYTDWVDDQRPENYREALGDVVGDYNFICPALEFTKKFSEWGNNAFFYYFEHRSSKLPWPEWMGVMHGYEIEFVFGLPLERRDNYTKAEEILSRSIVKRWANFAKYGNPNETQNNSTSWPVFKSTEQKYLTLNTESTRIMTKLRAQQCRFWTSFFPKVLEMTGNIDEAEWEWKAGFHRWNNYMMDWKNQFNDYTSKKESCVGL

[2] = Binding affinity to 5'Dabcyl/3'-fluorescein-labelled pre-miRNA-15b (unknown origin) assessed as inhibition of recombinant human dicer-mediated pre-miRNA processing at 10 uM preincubated for 30 mins followed by dicer addition and measured after 5 hrs by FRET assay
Acetylcholinesterase [3] = target: T1, Acetylcholinesterase (Homo sapiens, UniProt P22303); experiment: Inhibition of recombinant human AChE at 10 uM using ATC as substrate by DTNB-reagent based Ellman's method relative to control
T1 sequence (P22303 whole entry): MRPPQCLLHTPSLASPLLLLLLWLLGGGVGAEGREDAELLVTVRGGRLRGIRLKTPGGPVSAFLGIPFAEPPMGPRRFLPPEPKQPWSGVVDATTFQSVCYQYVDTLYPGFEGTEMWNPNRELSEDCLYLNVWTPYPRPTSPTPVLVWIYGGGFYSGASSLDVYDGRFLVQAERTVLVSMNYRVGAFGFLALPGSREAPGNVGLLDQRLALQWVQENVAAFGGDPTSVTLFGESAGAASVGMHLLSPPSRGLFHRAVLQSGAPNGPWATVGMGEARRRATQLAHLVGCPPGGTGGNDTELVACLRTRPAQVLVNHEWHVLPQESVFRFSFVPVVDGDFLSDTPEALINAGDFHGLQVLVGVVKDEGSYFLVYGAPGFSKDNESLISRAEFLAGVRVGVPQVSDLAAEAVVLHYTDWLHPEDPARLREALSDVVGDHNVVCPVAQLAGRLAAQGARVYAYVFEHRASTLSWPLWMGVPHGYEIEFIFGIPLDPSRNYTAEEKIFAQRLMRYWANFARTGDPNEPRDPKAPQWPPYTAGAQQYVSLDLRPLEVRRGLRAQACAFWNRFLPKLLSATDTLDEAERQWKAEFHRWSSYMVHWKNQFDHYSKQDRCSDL

[4] = Binding affinity to 5'Dabcyl/3'-fluorescein-labelled pre-miRNA-15b (unknown origin) assessed as inhibition of recombinant human dicer-mediated pre-miRNA processing preincubated for 30 mins followed by dicer addition and measured after 5 hrs by FRET assay
[5] = Binding affinity to 5'Dabcyl/3'-fluorescein-labelled pre-miRNA-15b (unknown origin) assessed as inhibition of dicer-mediated pre-miRNA processing […] by FRET assay
[6] = Binding affinity to 3'-fluorescein-labelled pre-miRNA-15b (unknown origin) measured after 30 mins by FRET assay
[7] = Binding affinity to 5'Dabcyl/3'-fluorescein-labelled pre-miRNA146a (unknown origin) assessed as inhibition of recombinant human dicer-mediated pre-miRNA processing at 10 uM preincubated for 30 mins followed by dicer addition and measured after 5 hrs by FRET assay
[8] = Binding affinity to 5'Dabcyl/3'-fluorescein-labelled pre-miRNA124 (unknown origin) assessed as inhibition of recombinant human dicer-mediated pre-miRNA processing at 10 uM preincubated for 30 mins followed by dicer addition and measured after 5 hrs by FRET assay
[9] = Binding affinity to 5'Dabcyl/3'-fluorescein-labelled pre-miRNA212 (unknown origin) assessed as inhibition of recombinant human dicer-mediated pre-miRNA processing at 10 uM preincubated for 30 mins followed by dicer addition and measured after 5 hrs by FRET assay
Homo sapiens = species on record: Homo sapiens; experiment: Inhibition of miRNA-15b biogenesis in human SH-SY5Y cells at 10 uM measured after 96 hrs by Trizol reagent based RT-qPCR analysis relative to control; type: cell-based
Acetylcholinesterase [10] = target: T1, Acetylcholinesterase; experiment: Inhibition of recombinant human AChE using ATC as substrate by DTNB-reagent based Ellman's method
Acetylcholinesterase [11] = target: T1, Acetylcholinesterase; experiment: Mixed type inhibition of recombinant human AChE at […] using varying levels of ATC as substrate by Lineweaver-burk plot analysis; conditions: dose microM 0.5-10
SH-SY5Y = experiment: Protection against amyloid beta oligomer-induced cytotoxicity in human SH-SY5Y cells expressing miRNA-15b assessed as cell viability at 10 uM after 72 hrs by MTT assay relative to control; type: functional; conditions: read-out: Activity
[12] = Permeability of the compound in PBS/EtOH solution measured after 16 hrs by PAMPA; type: ADME; conditions: read-out: permeability
[13] = Partition coefficient, log P of the compound in pH 7.4 1-octanol/PBS buffer at 38 mg measured after 1 hr by LC-MS/MS analysis; type: physicochemical
[14] = Solubility of the compound in pH 7.4 PBS buffer at 100 uM measured after 24 hrs by LC-MS/MS analysis; type: physicochemical
[15] = Half life in pH 1.6 simulated gastric fluid at 100 uM by LC-MS/MS analysis; type: ADME
[16] = Half life in pH 6.5 simulated intestinal fluid at 100 uM by LC-MS/MS analysis; type: ADME
[17] = Stability in human serum assessed as parent compound remaining at 100 uM measured after 2 hrs by LC-MS/MS analysis; type: ADME, cell-free; conditions: read-out: Stabilty
[18] = Apparent permeability across apical to basolateral side in human Caco2 cells after 120 mins by LC-MS/MS analysis; type: ADME, cell-based; conditions: Caco-2
[19] = Apparent permeability across basolateral to apical side in human Caco2 cells after 120 mins by LC-MS/MS analysis; type: ADME, cell-based; conditions: Caco-2
[20] = Half life in Sprague-Dawley rat liver microsomes at 100 uM measured at 20 mins interval by LC-MS/MS analysis; type: ADME, Microsome
HEL 299 = experiment: Cytotoxicity against HEL 299 cells measured after 2 days by MTT assay; type: cell-based; conditions: Homo sapiens, HEL 299, 48 h
[21] = Binding affinity to miRNA-15b variant (unknown origin) transfected in human SH-SY5Y cells at 0.5 to 10 uM preincubated with cells for 4 hrs followed by transfection and measured after 4 days by renilla luciferase reporter gene assay; type: cell-based; conditions: dose microM 0.5-10, time 4.0 hrs

CCN(C)C(=O)Oc1cccc([C@H](C)N(C)C)c1
inhibition [1]: Active

COCCn1cnc2cc(NC(=O)c3ccccc3)cc(C(=O)NCc3cc(F)cc(F)c3)c21
inhibition [2]: Active | inhibition (Acetylcholinesterase [3]): > 90% | IC50 [4]: 370 nM | IC50 [5]: 530 nM | Kd [6]: 810 nM | inhibition [7]: inactive | inhibition [8]: inactive | inhibition [9]: inactive | inhibition (Homo sapiens): 55% | IC50 (Acetylcholinesterase [10]): 120 nM | inhibition (Acetylcholinesterase [11]): Active | inhibition [1]: Active | viability at 10 µM (SH-SY5Y): 90% | Papp at 16 h [12]: 30.8 ×10⁻⁶ cm/s | logD at 1 h [13]: 2.34 | solubility at 24 h, 100 µM [14]: 34 µM (≈ 15.8 µg/mL) | half-life at 100 µM [15]: 6.87 h | half-life at 100 µM [16]: > 8.33 h | remaining at 2 h, 100 µM [17]: 99.1% | Papp A→B at 2 h [18]: 16.7 ×10⁻⁶ cm/s | Papp B→A at 2 h [19]: 36.5 ×10⁻⁶ cm/s | half-life at 100 µM [20]: > 5 h | IC50 (HEL 299): > 50000 nM | Activity [21]: inactive

COc1cc2c(cc1OC)C(=O)C(CC1CCN(Cc3ccccc3)CC1)C2 (stereo unspecified) [DONEPEZIL]
viability at 10 µM (SH-SY5Y): 45%
